Test results from patent US20060167084A1, “Delta-9-THC compositions and methods for treating symptoms associated with multiple sclerosis” (Unimed Pharmaceuticals, Inc., priority 2003, published 2006).

Key:
[1] = test system: patients with multiple sclerosis; assay: Patient assessment of treatment benefit at visit 8; format: in vivo, human
[2] = test system: spasticity related to multiple sclerosis; assay: Ashworth score of spasticity, randomized placebo-controlled MS study; format: in vivo, human; settings: baseline to 13 weeks' follow-up
[3] = test system: patients with multiple sclerosis; assay: Category-rating scales of symptoms (patient reported secondary outcomes); format: in vivo, human
[4] = test system: patients with multiple sclerosis; assay: Adverse events reported by patients
[5] = test system: patients with multiple sclerosis; assay: Timed 10 meter walk; format: in vivo, human; settings: baseline to follow-up (visit 7)

Compound: CCCCCc1cc(O)c2c(c1)OC(C)(C)[C@@H]1CCC(C)=C[C@@H]21 [delta-9-THC, (6aR-trans)-6a,7,8,10a-tetrahydro-6,6,9-trimethyl-3-pentyl-6H-dibenzo>b,d!pyran-1-ol]
- Symptom improvement Bladder: No, patients ([1]; visit 8, number of patients): 97
- Symptom improvement Bladder: Yes, patients ([1]; visit 8, number of patients): 67
- Symptom improvement Pain: No, patients ([1]; visit 8, number of patients): 64
- Symptom improvement Pain: Yes, patients ([1]; visit 8, number of patients): 64
- Symptom improvement Spasticity: No, patients ([1]; visit 8, number of patients): 73
- Symptom improvement Spasticity: Yes, patients ([1]; visit 8, number of patients): 108
- Symptom improvement Tremor: No, patients ([1]; visit 8, number of patients): 67
- Symptom improvement Tremor: Yes, patients ([1]; visit 8, number of patients): 44
- Symptom improvement Bladder: No ([1]; visit 8, percent of patients): (59%)
- Symptom improvement Bladder: Yes ([1]; visit 8, percent of patients): (40%)
- Symptom improvement Pain: No ([1]; visit 8, percent of patients): (50%)
- Symptom improvement Pain: Yes ([1]; visit 8, percent of patients): (50%)
- Symptom improvement Spasticity: No ([1]; visit 8, percent of patients): (40%)
- Symptom improvement Spasticity: Yes ([1]; visit 8, percent of patients): (60%)
- Symptom improvement Tremor: No ([1]; visit 8, percent of patients): (60%)
- Symptom improvement Tremor: Yes ([1]; visit 8, percent of patients): (40%)
- Mean (SD) change in Ashworth score, lower-body muscle groups [2]: 1.39 (5.21)
- Mean (SD) change in Ashworth score, upper-body muscle groups [2]: 0.48 (4.70)
- Mean (SD) change in total Ashworth score (baseline minus follow-up) ([2]; all muscle groups): 1.86 (7.95)
- Depression: Deterioration, patients ([3]; number of patients): 42
- Depression: Improvement, patients ([3]; number of patients): 36
- Depression: Same, patients ([3]; number of patients): 47
- Energy: Deterioration, patients ([3]; number of patients): 49
- Energy: Improvement, patients ([3]; number of patients): 61
- Energy: Same, patients ([3]; number of patients): 63
- Irritability: Deterioration, patients ([3]; number of patients): 32
- Irritability: Improvement, patients ([3]; number of patients): 37
- Irritability: Same, patients ([3]; number of patients): 42
- Pain: Deterioration, patients ([3]; number of patients): 22
- Pain: Improvement, patients ([3]; number of patients): 64
- Pain: Same, patients ([3]; number of patients): 43
- Shake/tremor: Deterioration, patients ([3]; number of patients): 32
- Shake/tremor: Improvement, patients ([3]; number of patients): 52
- Shake/tremor: Same, patients ([3]; number of patients): 44
- Sleep: Deterioration, patients ([3]; number of patients): 24
- Sleep: Improvement, patients ([3]; number of patients): 71
- Sleep: Same, patients ([3]; number of patients): 57
- Spasms: Deterioration, patients ([3]; number of patients): 37
- Spasms: Improvement, patients ([3]; number of patients): 81
- Spasms: Same, patients ([3]; number of patients): 49
- Spasticity: Deterioration, patients ([3]; number of patients): 47
- Spasticity: Improvement, patients ([3]; number of patients): 89
- Spasticity: Same, patients ([3]; number of patients): 40
- Tiredness: Deterioration, patients ([3]; number of patients): 76
- Tiredness: Improvement, patients ([3]; number of patients): 35
- Tiredness: Same, patients ([3]; number of patients): 46
- Depression: Deterioration ([3]; percent of patients): (34%)
- Depression: Improvement ([3]; percent of patients): (29%)
- Depression: Same ([3]; percent of patients): (38%)
- Energy: Deterioration ([3]; percent of patients): (28%)
- Energy: Improvement ([3]; percent of patients): (35%)
- Energy: Same ([3]; percent of patients): (36%)
- Irritability: Deterioration ([3]; percent of patients): (29%)
- Irritability: Improvement ([3]; percent of patients): (33%)
- Irritability: Same ([3]; percent of patients): (38%)
- Pain: Deterioration ([3]; percent of patients): (17%)
- Pain: Improvement ([3]; percent of patients): (50%)
- Pain: Same ([3]; percent of patients): (33%)
- Shake/tremor: Deterioration ([3]; percent of patients): (25%)
- Shake/tremor: Improvement ([3]; percent of patients): (41%)
- Shake/tremor: Same ([3]; percent of patients): (34%)
- Sleep: Deterioration ([3]; percent of patients): (16%)
- Sleep: Improvement ([3]; percent of patients): (47%)
- Sleep: Same ([3]; percent of patients): (38%)
- Spasms: Deterioration ([3]; percent of patients): (22%)
- Spasms: Improvement ([3]; percent of patients): (49%)
- Spasms: Same ([3]; percent of patients): (29%)
- Spasticity: Deterioration ([3]; percent of patients): (27%)
- Spasticity: Improvement ([3]; percent of patients): (51%)
- Spasticity: Same ([3]; percent of patients): (23%)
- Tiredness: Deterioration ([3]; percent of patients): (48%)
- Tiredness: Improvement ([3]; percent of patients): (22%)
- Tiredness: Same ([3]; percent of patients): (29%)
- Incidences of MS relapse by comparison with placebo ([4]; in words): greatly reduced
- Adverse event: Blocked/insertion of suprapubic catheter ([4]; number of events reported): 0
- Adverse event: Constipation ([4]; number of events reported): 0
- Adverse event: Grand mal seizure ([4]; number of events reported): 0
- Adverse event: MS relapse or possible relapse ([4]; number of events reported): 1
- Adverse event: Other ([4]; number of events reported): 11
- Adverse event: Pneumonia ([4]; number of events reported): 2
- Adverse event: Urinary tract infection ([4]; number of events reported): 3
- Reduction of median time taken to walk 10 meters [5]: 12%
